Data set [1] is described as follows: Metabolism in pooled human liver microsomes, formation of desmethyl metabolite. It counts as in vitro ADME. Here is the method:
Pooled human liver microsomes (50 donors, from Xenotech) were incubated with 1 μM or 10 μM of compound at 37° C. […] The protein concentration was 0.2 mg/mL and the final volume was 0.5 mL. Following a 10-minute pre-incubation, the reaction was initiated by adding Compound. After 0, 15, 30, 60, 90, 120, and 180 minutes, the reactions were terminated by transferring the subcellular fraction to 0.5 mL of stopping reagent containing internal standard. The incubations were carried out in triplicate. The samples were centrifuged at 4000 g (4° C., 15 min) and the supernatants were analyzed by HPLC-MS/MS. Data were expressed as MS area relative to an internal standard.

Data set [2] has as its system D2 receptors in rat brain. As to the kind of experiment: In vivo binding to D2 receptors in rat brain. Conditions: 20 mg/kg subcutaneous 30 minutes before [3H]-raclopride i.v. As for the experimental part: Description of In Vivo Binding to D2 Receptors in Rat Brain
Briefly, 6 rats (male Wistar, 180-200 g) were treated with 20 mg/kg test compound subcutaneous 30 minutes before receiving 9.4 micro Ci [^3H]-raclopride intravenously via the tail vein.
15 minutes after the injection of the radio ligand, the animals were killed by cervical dislocation, the brain quickly removed, and striatum and cerebellum dissected out and homogenized in 5 mL (cerebellum in 20 mL) ice-cold buffer (50 mM K3PO4, pH 7.4). 1.0 mL of the homogenate was filtered through 0.1% PEI-soaked Whatman GF/C filters. This was completed within 60 seconds subsequent to the decapitation. Filters were washed 2 times with 5 mL ice-cold buffer and counted in a scintillation counter. A group of vehicle-treated animals was used to determine [^3H]-raclopride total binding in striatum and non-specific binding in cerebellum.

Data set [3] deals with recombinant human liver CYP3A4 (Homo sapiens (Human), UniProt P08684). As to the kind of experiment: Metabolism by recombinant human liver CYP3A4. Type of data set: in vitro ADME. As for the experimental part:
(§1) The protein concentration was 0.5 mg/mL and the final volume was 0.5 mL. […] After 0, 15, 30, 60, 90, 120, and 180 minutes, the reactions were terminated by transferring the subcellular fraction to 0.5 mL of stopping reagent containing internal standard. The incubations were carried out in triplicate. The samples were centrifuged at 4000×g (4° C., 15 minutes) and the supernatants were analyzed by HPLC-MS/MS. Data were expressed as MS area relative to an internal standard.

The target in data set [4] is recombinant human liver CYP2C19 (Homo sapiens (Human), UniProt P33261). Put plainly: Metabolism by recombinant human liver CYP2C19. Type of data set: in vitro ADME. Here is the method:
as §1

In data set [5] the test system is PCP-induced hyperactivity in mice. As to the kind of experiment: PCP-induced hyperactivity in mice. The note with it: hydrogen tartrate s.c. 30 minutes before test, PCP 2.3 mg/kg s.c.
Description: Locomotor activity was measured for 60 minutes as number of beam breaks (counts). Eight-to-16 male mice were used in each group. ##indicates P<0.01 versus Vehicle-PCP (One-way analysis of variance [ANOVA] followed by Bonferroni post-hoc test).
The nature of data set [6]: Human pharmacokinetic multiple oral dose study. Type of data set: in vivo. Conditions: male, healthy young men, 3 mg daily oral for 18 days, plasma after last dose, read-out: mean AUC 0-24 of parent compound. The source says:
The pharmacokinetics of Compound (IV) and Compound (X) were compared in a multiple oral dose study in healthy young men.

Data set [7] is described as follows: Solubility of salts of Compound (IV). It counts as physicochemical.
Data set [8] in a line: Log P / log D profile by titration with n-octanol. Type of data set: physicochemical. The note with it: n-octanol:water, 27° C., ion strength approximately 0.16. Here is the method: A series of three repeated titrations on the same sample in solution was performed, from low to high pH. The first titration was performed with a small amount of n-octanol present in the solution, the second and third with increasing amounts.
A difference curve was created from each of these titrations by blank subtraction, and from these difference curves, the apparent pKa values (poKa) were calculated. From the change in the apparent pKa values (ΔpKa) with the n-octanol:water ratio combined with the real pKa value, the Log P value was calculated and the Log D profile was derived.

Data set [9] relates to catalepsy in rats. As to the kind of experiment: Catalepsy test in rats. It counts as in vivo, rats (male Sprague Dawley). Conditions: tartrate s.c. 30 minutes before test. The source says:
Catalepsy is thought to reflect drug-induced suppression of the ability to initiate a behavioral response. The catalepsy test in rats is a common and widely used preclinical screening test for the EPS liability of potentially antipsychotic drugs. Although catalepsy is usually assessed following acute drug administration, the test has proven to be a reliable predictor for the propensity of an antipsychotic drug to induce EPS (that is, pseudo parkinsonism, dystonia) in humans (Elliott, P. J. et al, J. Neural. Transm. Park. Dis. Dement. Sect. 1990, 2, 79-89; herein incorporated by reference in its entirety). […] The minimal effective dose inducing catalepsy was 10 mg/kg (FIG. 17). […] Eight male Sprague Dawley rats were used in each group. # indicates P<0.05, ## indicates P<0.01 versus vehicle (One-way ANOVA followed by Bonferroni post-hoc test). This dose is 100 times higher than the dose indicating antipsychotic activity (FIG. 16).

The nature of data set [10]: pKa determination by potentiometric titration / Dip Probe Absorption Spectroscopy. It counts as physicochemical. The note with it: ion strength 0.16, extrapolated to zero MeOH. As for the experimental part: pKa was determined by potentiometric titration of the base at ion strength 0.16 using MeOH as co-solvent. Three series of three repeated titrations on the same solution of the sample was performed in a conventional way from low to high pH and a difference curve was created from each of these titrations by blank subtraction. The apparent pKa-value at each MeOH:water ratio is calculated from the difference curves, and the pKa value is determined by extrapolation to zero MeOH content.
The lower pKa was determined by Dip Probe Absorption Spectroscopy detection during titration of the base at ion strength 0.16 using MeOH as co-solvent. The change in absorption spectra as a function of ionisation is used to calculate the pKa value. Two series of three repeated titrations on the same solution of the sample was performed from low to high pH, with a photo diode array as additional detection. The apparent pKa value at each MeOH:water ratio is calculated by target factor analysis on the change in absorption spectra, and the pKa value is determined by extrapolation to zero MeOH content.

Data set [11] relates to cryopreserved dog hepatocytes. As to the kind of experiment: Metabolism in cryopreserved dog hepatocytes, formation of desmethyl metabolite. It counts as in vitro ADME, dog (male Beagle dog). Conditions: for amount of desmethyl metabolite (Compound (XI)) produced, versus Compound (X): cryopreserved dog hepatocytes. As for the experimental part: Cryopreserved dog (male Beagle dog) hepatocytes (1 million cells/mL in suspension, 50 μL/well) were pre-incubated for 15 minutes in a 96-well plate at 37° C. water bath in DMEM high glucose buffered with 1 M HEPES.

The next data set concerns 5-HT2. The note with it: J. Med. Chem. 1995, 38, 4380-4392; cited from earlier work.
The next data set concerns D2. Conditions: in vitro, J. Med. Chem. 1995, 38, 4380-4392; cited from earlier work.
The test system of data set [12] is catalepsy in rats. The note with it: fumarate salt, J. Med. Chem. 1995, 38, 4380-4392; cited from earlier work.
The subject of another data set is D1. The note with it: in vitro, J. Med. Chem. 1995, 38, 4380-4392; cited from earlier work.

Read-outs that look alike come from different tables or passages of the source.

recombinant human liver CYP2C19, sequence (P33261 whole entry): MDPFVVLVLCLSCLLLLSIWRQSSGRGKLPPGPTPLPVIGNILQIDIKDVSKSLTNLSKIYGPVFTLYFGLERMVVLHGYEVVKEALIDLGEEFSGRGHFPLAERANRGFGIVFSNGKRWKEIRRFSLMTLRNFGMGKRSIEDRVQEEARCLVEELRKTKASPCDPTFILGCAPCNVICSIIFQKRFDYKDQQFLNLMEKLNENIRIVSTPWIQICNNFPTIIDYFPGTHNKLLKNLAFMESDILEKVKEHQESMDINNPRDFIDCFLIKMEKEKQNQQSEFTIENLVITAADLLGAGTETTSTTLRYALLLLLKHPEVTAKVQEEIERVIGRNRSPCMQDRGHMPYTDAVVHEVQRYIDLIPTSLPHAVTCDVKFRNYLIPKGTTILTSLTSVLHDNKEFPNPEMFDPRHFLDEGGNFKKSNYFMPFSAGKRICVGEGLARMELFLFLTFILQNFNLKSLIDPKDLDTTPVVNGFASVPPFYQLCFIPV
recombinant human liver CYP3A4, sequence (P08684 whole entry): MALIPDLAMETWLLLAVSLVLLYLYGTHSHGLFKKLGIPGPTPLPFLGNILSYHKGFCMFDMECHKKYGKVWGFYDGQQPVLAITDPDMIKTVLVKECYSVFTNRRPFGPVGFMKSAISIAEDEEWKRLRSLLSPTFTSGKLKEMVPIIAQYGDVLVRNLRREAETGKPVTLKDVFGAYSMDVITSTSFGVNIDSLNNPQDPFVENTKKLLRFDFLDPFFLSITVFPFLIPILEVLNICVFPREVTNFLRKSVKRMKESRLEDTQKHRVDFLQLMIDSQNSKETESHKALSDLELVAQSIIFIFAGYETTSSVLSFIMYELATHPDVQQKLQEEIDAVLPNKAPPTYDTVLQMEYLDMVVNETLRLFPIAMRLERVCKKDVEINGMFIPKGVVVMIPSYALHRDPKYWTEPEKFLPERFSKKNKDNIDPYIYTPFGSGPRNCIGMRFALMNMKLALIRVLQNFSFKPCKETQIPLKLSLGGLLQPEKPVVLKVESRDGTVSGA

`[2H]c1c([2H])c([2H])c([C@@H]2C[C@@H](N3CCN(C)C(C)(C)C3)c3cc(Cl)ccc32)c([2H])c1[2H]` (single isomer, unassigned) [Compound (II)]: the “amount of desmethyl metabolite produced, versus Compound (X)” value is “lower” in data set [1] (1 μM); “lower” in data set [1] (10 μM); “lower” in [3] (1 mM (so in the source)); “lower” in [3] (10 mM (so in the source)); “Corresponding results” in data set [4] (1 μM); “lower” in data set [4] (10 μM). Besides, the “occupancy of D2 receptors by in vivo binding” value in data set [2] came to 75%.

For `CN1CCN([C@@H]2C[C@@H](c3ccccc3)c3ccc(Cl)cc32)CC1(C)C` (single isomer, unassigned) [Compound (IV)], the “reversal of PCP-induced hyperactivity (locomotor activity)” value in data set [5] was “dose-dependently reverses”.

Turning to `[2H]c1c([2H])c([2H])c([C@@H]2C[C@@H](N3CCN(C([2H])([2H])[2H])C(C)(C)C3)c3cc(Cl)ccc32)c([2H])c1[2H]` (single isomer, unassigned) [Compound (IV)], the “amount of desmethyl metabolite produced, versus Compound (X)” value is listed as “lower” in [1] (1 μM); “lower” in data set [1] (10 μM); “lower” in data set [3] (1 mM (so in the source)); “lower” in data set [3] (10 mM (so in the source)); “lower” in data set [4] (1 μM); “Corresponding results” in [4] (10 μM). For the same compound, the “occupancy of D2 receptors by in vivo binding” value in data set [2] was found to be 70%. For the same compound, the AUC(0-t) in [6] was 104 ng·h/mL. The solubility in data set [7] (pH 7.6) stood at 100 µg/mL. In data set [7] (salts of Compound (IV)), the “pH of solubility solution” value amounted to 7.6. The logP in [8] was 5.4 ± 0.4. Moreover, in data set [8] (pH 7.4, read-out: Log D7.4), the logD came to 3.9 ± 0.4. In the data set on catalepsy in rats [9], the induction of catalepsy entry is on record as “dose-dependently induced catalepsy”. Besides, the “minimal effective dose inducing catalepsy” value in the data set with catalepsy in rats [9] is listed as 10 mg/kg. The pKa in data set [10] (Dip Probe Absorption Spectroscopy, read-out: lower pKa) was 2.5 ± 0.1; in data set [10] (potentiometric titration, read-out: high pKa), 8.9 ± 0.1.

With `[2H]C([2H])([2H])N1CCN([C@@H]2C[C@@H](c3ccccc3)c3ccc(Cl)cc32)CC1(C)C` [Compound (I), 4-((1R,3S)-6-chloro-3-phenyl-indan-1-yl)-1-methyl-d3-2,2-dimethyl-piperazine], the “amount of desmethyl metabolite (Compound (XI)) produced, versus Compound (X)” value in [11] (0.1 μM) and in data set [11] (1 μM) was “lower” in each case. The “decrease in formation of the desmethyl metabolite (Compound (XI)) in comparison to Compound (X)” value in data set [11] (dog hepatocytes) was “approximately 50%”.

For `CN1CCN([C@@H]2C[C@@H](c3ccccc3)c3ccc(Cl)cc32)CC1(C)C` [Compound (X), 4-((1R,3S)-6-Chloro-3-phenyl-indan-1-yl)-1,2,2-trimethyl-piperazine], the AUC(0-t) in [6] was found to be 98 ng·h/mL. Besides, the 5-HT2 antagonism entry in the data set with 5-HT2 is reported as “potent 5-HT2 antagonist”. Also, the D2 antagonism result in the data set on D2 is “potent D1/D2 antagonist”. In addition, the catalepsy in rats result in the data set with catalepsy in rats [12] is “does not induce catalepsy”. In addition, the D1 antagonism result with D1 is “potent D1/D2 antagonist”.

The record behind these values is patent publication US12116355B2, “Deuterated 1-piperazino-3-phenyl indanes for treatment of schizophrenia” (H. Lundbeck A/S, priority 2011, dated 2024).
